{"source": "patent US12653827B2", "about": "“Methods of treating indolent systemic mastocytosis” (Telios Pharma Inc., priority 2024, dated 2026)", "key": {"[1]": {"system": "IL-8, MCP-1, MIP-1a, IL-13 and IL-10", "experiment": "Antigen-induced cytokine production in ISM-like and healthy mast cell conditions", "assay_type": "cell-based, human", "conditions": "ISM-like mast cells; treated two hours, antigen four hours", "experimental": "Human mast cells were derived from bone marrow CD34+ cells from six healthy donors for up to eight weeks by culturing CD34+ cells in StemSpan SFEM II (Stem Cell Technologies) supplemented with stem cell factor (SCF; 100 ng/mL; R&D System), IL-6 (R&D Systems), IL-3 (R&D Systems) and 1% penicillin/streptomycin (P/S; Gibco) for the first 10 days and in StemSpan SFEM II supplemented with SCF and IL-6 and 1% P/S for the remaining time in culture. […] Supernatant was collected and histamine levels were measured using a Histamine ELISA kit (Eagle Biosciences). […] Percent of activated mast cells was calculated as number of activated mast cells over the total number of mast cells.\nHuman mast cells were differentiated from bone marrow CD34+ cells from two healthy donors, cultured and sensitized in ISM-like and healthy mast cell conditions as set forth in Example 4, treated with Compound 128 for two hours and stimulated with antigen for four hours. Supernatant was collected and cytokine levels were measured using the BD Cytometric Bead Array (CBA) human soluble protein master buffer kit (Becton Dickinson) and BD CBA human soluble protein flex sets for IL-8, MCP-1, MIP-1a, IL-13 and IL-10 (Becton Dickinson). […]"}, "serum tryptase": {"system": "serum tryptase", "experiment": "Serum tryptase in ISM patients", "assay_type": "in vivo, human", "conditions": "100 mg or 150 mg BID", "experimental": "Also, blood samples were collected at the following timepoints: Cycle 1, Day 1: pre-dose (within 30 minutes prior to the morning dose), 0.5, 1.0, 2.0, 3.0, 4.0, and 6.0 hours (±15 minutes) post-morning dose. Cycle 1, Day 8: pre-dose (within 30 minutes prior to the morning dose) and 2 hours (±15 minutes) post-morning dose. Serum tryptase tests were conducted according to Example 14.\nThe measurement of serum tryptase can be followed to the procedure described in the literature (McMurray et al., Standardized indolent systemic mastocytosis evaluations across a health care system: implications for screening accuracy, Blood (2024) 144 (4): 408-419). Briefly, the procedure begins with proper patient preparation, avoiding recent physical activity or triggers that could cause mast cell activation. Venous blood samples, preferably drawn when the patient is not experiencing acute symptoms, are collected in serum separator tubes (SSTs) or plain red-top tubes, with approximately 5 mL of blood needed for analysis. After collection, the blood is allowed to clot at room temperature for 30-60 minutes before centrifugation for 10-15 minutes. The serum is then carefully separated from the cells and stored at 2-8° C. for short-term analysis or frozen at −20° C. or lower for long-term storage. […]"}, "[2]": {"system": "calcium influx in mast cell", "experiment": "IgE-mediated calcium influx in ISM patient mast cells (FIG. 17)", "assay_type": "cell-based", "conditions": "presence of SCF", "experimental": "Mast cell from an ISM patient was treated with Compound 128 at 50 mg, 75 mg, 100 mg, and 150 mg BID dose prior to antigen (Ag) stimulation. ISM 3-2 mast cell donor MC 1061-004 C1D8 D39. Experiments performed in the presence of SCF. […] Percent of Control (POC) based on Area-under-Curve above baseline (1st value)."}, "mast cells": {"system": "mast cells", "experiment": "Monomeric IgE-mediated degranulation and cytokine production in mast cells", "assay_type": "cell-based, human", "conditions": "mast cells from a healthy donor, treated 2 hours, myeloma IgE with SCF", "experimental": "Mast cells from a healthy donor were starved of SCF for 18 hours and treated with Compound 128 for 2 hours. Mast cells were stimulated with SCF (100 ng/mL) or myeloma IgE (3 μg/mL; Millipore Sigma) alone or in combination for 30 minutes (CD63 and Histamine) or 24 hours (cytokine production), respectively. For the histamine and cytokine test, supernatant was collected and the levels of histamine and cytokines were measured as set forth in Example 4 for histamine and Example 7 for cytokines. For the CD63 test, the cells were stained for CD63, data was acquired on a flow cytometer and percent activated mast cells calculated as set forth in Example 4. […] The monomeric IgE contribution to degranulation and cytokine production is inhibited by Compound 128."}, "[3]": {"system": "IL-8, MCP-1, GM-CSF and IL-13", "experiment": "MRGPRX2-mediated cytokine production in ISM-like mast cells", "assay_type": "cell-based, human", "experimental": "Human mast cells were differentiated from bone marrow CD34+ cells from four healthy donors and were cultured in the presence of SCF (100 ng/mL) to mimic mast cells in ISM and treated with Compound 128 for two hours prior to stimulation. Mas-related G protein-coupled receptor (MRGPRX2) agonists, Compound 48/80 (C48/80; a product of N-methyl-p-methoxyphenethylamine with formaldehyde) or Substance P (SP) were used to activate the MRGPRX2 pathway. For pBTK test, cells were stimulated with C48/80 (10 μg/mL) for ten minutes at 37° C. and cells were stained. The median fluorescence intensity of phosphorylated BTK was measured. The fold change over unstimulated control for pBTK was calculated. For cytokine test, cells were stimulated with C48/80 (10 μg/mL) or SP (30 μM) for four hours at 37° C. Supernatant was collected and cytokine levels were measured using the BD Cytometric Bead Array (CBA) human soluble protein master buffer kit (Becton Dickinson) and BD CBA human soluble protein flex sets for IL-8, MCP-1, GM-CSF and IL-13 (Becton Dickinson). Cytokine levels were measured and normalized to percent of control, with 0% representing the level of the unstimulated control."}, "BTK": {"biological_target": "BTK (Homo sapiens, UniProt Q06187)", "sequence (Q06187 whole entry)": "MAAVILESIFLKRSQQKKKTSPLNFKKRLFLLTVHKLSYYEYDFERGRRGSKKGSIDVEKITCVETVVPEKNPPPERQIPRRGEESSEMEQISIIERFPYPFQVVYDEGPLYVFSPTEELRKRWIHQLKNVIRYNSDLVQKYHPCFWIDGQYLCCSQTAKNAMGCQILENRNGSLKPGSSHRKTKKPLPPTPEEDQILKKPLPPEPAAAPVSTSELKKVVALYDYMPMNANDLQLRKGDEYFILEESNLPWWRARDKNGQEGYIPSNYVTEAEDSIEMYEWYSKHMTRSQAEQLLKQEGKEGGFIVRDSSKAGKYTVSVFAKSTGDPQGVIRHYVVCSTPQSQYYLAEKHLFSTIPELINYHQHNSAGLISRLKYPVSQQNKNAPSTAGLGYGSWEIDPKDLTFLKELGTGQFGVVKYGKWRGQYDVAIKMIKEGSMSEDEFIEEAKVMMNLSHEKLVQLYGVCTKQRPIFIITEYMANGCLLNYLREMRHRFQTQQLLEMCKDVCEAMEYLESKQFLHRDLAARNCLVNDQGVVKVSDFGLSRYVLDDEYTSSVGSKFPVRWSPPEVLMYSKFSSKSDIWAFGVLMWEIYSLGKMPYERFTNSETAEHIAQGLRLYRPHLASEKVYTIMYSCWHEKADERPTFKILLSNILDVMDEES", "experiment": "BTK phosphorylation in mast cells (FIG. 19)", "assay_type": "cell-based", "parameters": "endogenous in cells"}, "[4]": {"system": "downstream signaling proteins", "experiment": "Downstream signaling proteins in antigen-stimulated mast cells (FIG. 20)", "assay_type": "cell-based", "conditions": "mast cells stimulated with an antigen"}}}
{"compound": "C=CC(=O)N1CCC(F)(CNc2ncnc(N)c2-c2ccc(Oc3ccccc3)cc2)CC1", "note": "[Compound 128, 1-(4-(((6-amino-5-(4-phenoxyphenyl)pyrimidin-4-yl)amino)methyl)-4-fluoropiperidin-1-yl)prop-2-en-1-one]", "values": [{"measurement": "IgE-mediated cytokine production", "setting": "[1]", "value": "inhibited"}, {"measurement": "reduction in serum tryptase", "setting": "serum tryptase", "value": "effective in reducing serum tryptase levels"}, {"measurement": "inhibition of IgE-mediated calcium influx", "setting": "[2]", "value": "potently inhibits"}, {"measurement": "monomeric IgE contribution to degranulation and cytokine production", "setting": "mast cells", "value": "inhibited"}, {"measurement": "MRGPRX2-mediated cytokine production", "setting": "[3]; 0.1 μM", "value": "partially inhibited"}, {"measurement": "MRGPRX2-mediated cytokine production", "setting": "[3]; 0.5 and 1 μM", "value": "inhibition of cytokine production was increased"}, {"measurement": "C48/80-mediated cytokine production", "setting": "[3]; C48/80 (10 μg/mL) stimulation", "value": "partial inhibition"}, {"measurement": "MRGPRX2-mediated cytokine production in ISM-like mast cells (figure legend)", "setting": "[3]; FIGS. 15A-C", "value": "inhibits"}, {"measurement": "SP-mediated cytokine production", "setting": "[3]; Substance P (30 μM) stimulation", "value": "fully inhibited"}, {"measurement": "potency in inhibiting BTK phosphorylation in mast cells", "setting": "BTK", "value": "high potency"}, {"measurement": "activation of multiple downstream signaling proteins", "setting": "[4]", "value": "can be inhibited"}]}
